We go through 1 compound from patent publication US6716866B2, “Aryl-benzimidazole compounds having antiinfective activity” (GeneSoft Pharmaceuticals, Inc., priority 2001, dated 2004).

Assay type in all cases: cell-based
The test system of experiment [1] is B. cereus ATCC 11778. In words: NCCLS broth microdilution MIC, B. cereus ATCC 11778. The conditions noted are these: organism A = B. cereus ATCC 11778. The method, then:
(§1) Compounds according to this invention were screened for their in vitro activities against selected species of bacteria and fungi. The minimal inhibition concentration (MIC) of these compounds was determined using the National Committee for Clinical Laboratory Standards (NCCLS) broth microdilution assay in microtiter plates, as set forth in: (1) the guidelines of the National Committee for Clinical Laboratory Standards (NCCLS) Document M7-A4 (NCCLS, 1997); (2) the guidelines of the National Committee for Clinical Laboratory Standards (NCCLS) Document M11-A4 (NCCLS, 1997); and (3) the guidelines and reference method of the National Committee for Clinical Laboratory Standards (NCCLS) Document M27-T (NCCLS, 1995). For antifungal essays, the method recommended in Murray, PR., 1995 Manual of Clinical Microbiology (ASM Press, Washington, D.C.), was employed.

Experiment [2] has as its system C. albicans ATCC 38247. The experiment is described as follows: NCCLS broth microdilution MIC (antifungal), C. albicans ATCC 38247. Particulars: organism B = C. albicans ATCC 38247. How it is done: as §1
Experiment [3] relates to E. coli ATCC 25922. In words: NCCLS broth microdilution MIC, E. coli ATCC 25922. Particulars: organism C = E. coli ATCC 25922. How it is done:
as §1

The test system of experiment [4] is E. faecalis ATCC 29212. The experiment is described as follows: NCCLS broth microdilution MIC, E. faecalis ATCC 29212. The conditions noted are these: organism D = E. faecalis ATCC 29212. How it is done:
as §1

Experiment [5] relates to S. aureus ATCC 13709. The experiment is described as follows: NCCLS broth microdilution MIC, S. aureus ATCC 13709. Particulars: organism E = S. aureus ATCC 13709. How it is done: as §1
Experiment [6] concerns S. pneumoniae ATCC 49619. In words: NCCLS broth microdilution MIC, S. pneumoniae ATCC 49619. Particulars: organism F = S. pneumoniae ATCC 49619. The method, then: as §1
For experiment [7], the system named is E. faecium ATCC 51559. The experiment is described as follows: MIC against drug-resistant bacteria, E. faecium ATCC 51559. Particulars: organism A = E. faecium ATCC 51559, vancomycin resistant strain (VRE). The method, then:
as §1
(§2) Further, compounds (I) are effective against drug-resistant bacteria, as evidenced by the data in Table 2 below:
(§3) ATCC 27660 and ATCC 33591 are methycillin resistant strains of S. aureus (MRSA's). ATCC 51559 is a vancomycin resistant strain of E. faecium (VRE). ATCC 12228 is a methycillin resistant strain of S. epidermis (MRSE). ATCC 51422 is a penicillin resistant strain of S. pneumoniae.

Experiment [8] relates to S. aureus ATCC 27660. In words: MIC against drug-resistant bacteria, S. aureus ATCC 27660. The conditions noted are these: organism B = S. aureus ATCC 27660, methycillin resistant strain (MRSA). How it is done:
as §1, §2, §3

Experiment [9] has as its system S. aureus ATCC 33591. In words: MIC against drug-resistant bacteria, S. aureus ATCC 33591. The conditions noted are these: organism C = S. aureus ATCC 33591, methycillin resistant strain (MRSA). How it is done: as §1, §2, §3
For experiment [10], the system named is S. epidermis ATCC 12228. The experiment is described as follows: MIC against drug-resistant bacteria, S. epidermis ATCC 12228. Particulars: organism D = S. epidermis ATCC 12228, methycillin resistant strain (MRSE). How it is done: as §1, §2, §3
For experiment [11], the system named is S. pneumoniae ATCC 51422. In words: MIC against drug-resistant bacteria, S. pneumoniae ATCC 51422. The conditions noted are these: organism E = S. pneumoniae ATCC 51422, penicillin resistant strain. The method, then:
as §1, §2, §3

Some results are limits rather than exact numbers.

In the case of `Cn1cc(NC(=O)c2ccc3nc(-c4cc(NC(=O)c5sccc5Cl)cn4C)[nH]c3c2)cc1C(=O)NCCN1CCOCC1` [Compound I-2], the “Minimum Inhibitory Concentration (MIC)” value in experiment [1] is “+++ (MIC ≦4)”; in [2] it was more than 32 µg/mL; in experiment [3], more than 32 µg/mL; in [4], “+++ (MIC ≦4)”; in experiment [5], “+++ (MIC ≦4)”; in [6], “+++ (MIC ≦4)”. Besides, the “Minimum Inhibitoty Concentration (MIC)” value in [7], in [8], in [9], in [10] and in experiment [11] was “+++ (MIC ≦4)” in each case.
